Measured values reported in the supplement of paper PMC11061612.

Legend:
Assay in all cases: combination Emax (second highest fraction inhibited in the dose matrix, 72 h); higher = more inhibition; extreme values may be limits of the assay
A172 (Glioblastoma) = system: A172 (Glioblastoma)
Method in brief: (§1)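 Bliss excess equals the observed combination effect minus the expected value EA + EB − EA·EB, where EA and EB are the effects of each agent alone. Combination Emax is the second-highest inhibition within the matrix. Inhibition was scaled from CellTiter-Glo 2.0 luminescence, with 0 set by vehicle wells and 1 by blank wells, after 72 hours of two-drug dosing of cells plated in 1536-well plates.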

[1] = system: D-283MED (Other Solid Carcinomas)
Method in brief: as §1

[2] = system: YT (Other Blood Carcinomas)
Method in brief: as §1

[3] = system: EKVX (Non-Small Cell Lung Carcinoma)
Method in brief: as §1

[4] = system: SNU-61 (Colorectal Carcinoma)
Method in brief: as §1

MSTO-211H (Mesothelioma) = system: MSTO-211H (Mesothelioma)
Method in brief: as §1

[5] = system: CAL-39 (Other Solid Carcinomas)
Method in brief: as §1

SK-MEL-1 (Melanoma) = system: SK-MEL-1 (Melanoma)
Method in brief: as §1

[6] = system: NCI-H1688 (Small Cell Lung Carcinoma)
Method in brief: as §1

[7] = system: ETK-1 (Biliary Tract Carcinoma)
Method in brief: as §1

[8] = system: KG-1 (Acute Myeloid Leukemia)
Method in brief: as §1

[9] = system: U-118-MG (Low Grade Glioma)
Method in brief: as §1

H4 (Low Grade Glioma) = system: H4 (Low Grade Glioma)
Method in brief: as §1

[10] = system: GDM-1 (Acute Myeloid Leukemia)
Method in brief: as §1

[11] = system: TYK-nu (Ovarian Carcinoma)
Method in brief: as §1

[12] = system: HLE (Hepatocellular Carcinoma)
Method in brief: as §1

HuO9 (Osteosarcoma) = system: HuO9 (Osteosarcoma)
Method in brief: as §1

[13] = system: SLVL (B-Cell Non-Hodgkin's Lymphoma)
Method in brief: as §1

[14] = system: BICR78 (Oral Cavity Carcinoma)
Method in brief: as §1

MCF7 (Breast Carcinoma) = system: MCF7 (Breast Carcinoma)
Method in brief: as §1

Compound | combination Emax (A172 (Glioblastoma)) | combination Emax [1] | combination Emax [2] | combination Emax [3] | combination Emax [4] | combination Emax (MSTO-211H (Mesothelioma)) | combination Emax [5] | combination Emax (SK-MEL-1 (Melanoma)) | combination Emax [6] | combination Emax [7] | combination Emax [8] | combination Emax [9] | combination Emax (H4 (Low Grade Glioma)) | combination Emax [10] | combination Emax [11] | combination Emax [12] | combination Emax (HuO9 (Osteosarcoma)) | combination Emax [13] | combination Emax [14] | combination Emax (MCF7 (Breast Carcinoma))
COc1cccc(OCCCN)c1-c1cc(Nc2cnc(C#N)cn2)n[nH]1 [Prexasertib] + CCc1c2c(nc3ccc(O)cc13)-c1cc3c(c(=O)n1C2)COC(=O)[C@]3(O)CC [SN-38] (first compound max 1 µM, 7x7, partner max 0.3 µM) | 0.751 | 0.99 | 0.96 | 0.379 | 0.698 | 0.808 | 0.919 | 0.623 | 0.941 | 0.727 | 0.925 | 0.986 | 0.941 | 0.99 | 0.861 | 0.95 | 0.995 | 0.968 | 0.845 | 0.685
Cc1cc2ncnn2cc1Nc1ncc2c(n1)n(C1CCOCC1)c(=O)n2C [AZD7648] + C[C@@H]1COCCN1C2=NC(=NC(=C2)C3(CC3)[S@](=N)(=O)C)C4=C5C=CNC5=NC=C4 [AZD6738] (first compound max 10 µM, 7x7, partner max 10 µM) | 0.687 | 0.988 | 0.833 | 0.317 | 0.326 | 0.681 | 0.485 | 0.293 | 0.251 | 0.621 | 0.67 | 0.435 | 0.789 | 0.789 | 0.695 | 0.721 | 0.756 | 0.886 | 0.598 | 0.755
COc1cc2c(cc1OCCCCCOc1cc3c(cc1OC)C(=O)N1C=C(C)C[C@H]1C=N3)N=C[C@@H]1CC(C)=CN1C2=O [SG3199] + O=C(c1cc(Cc2n[nH]c(=O)c3ccccc23)ccc1F)N1CCN(C(=O)C2CC2)CC1 [Olaparib] (first compound max 0.001 µM, 7x7, partner max 10 µM) | 0.363 | 0.417 | 0.25 | 0.0945 | 0.0451 | 0.124 | 0.0869 | 0.134 | 0.107 | 0.188 | 0.289 | 0.305 | 0.505 | 0.32 | 0.369 | 0.143 | 0.2 | 0.518 | 0.131 | 0.106
Cc1cc2ncnn2cc1Nc1ncc2c(n1)n(C1CCOCC1)c(=O)n2C [AZD7648] + CN(C)CCCOc1ccc(-c2ccc3ncc4c(c3c2)n(C2CCOCC2)c(=O)n4C)cn1 [AZD0156] (first compound max 10 µM, 7x7, partner max 1 µM) | 0.319 | 0.496 | 0.705 | 0.315 | 0.172 | 0.33 | 0.322 | 0.347 | 0.147 | 0.155 | 0.323 | 0.277 | 0.448 | 0.657 | 0.431 | 0.31 | 0.369 | 0.404 | 0.208 | 0.373
CN(CCO)CC[C@H](CSc1ccccc1)Nc1ccc(S(=O)(=O)NC(=O)c2ccc(N3CCC([C@@H](O)c4ccccc4-c4ccc(Cl)cc4)CC3)cc2)cc1S(=O)(=O)C(F)(F)F [AZD4320] + CN(C)CCCOc1ccc(-c2ccc3ncc4c(c3c2)n(C2CCOCC2)c(=O)n4C)cn1 [AZD0156] (first compound max 1 µM, 7x7, partner max 1 µM) | 0.176 | 0.818 | 0.623 | 0.155 | 0.11 | 0.435 | 0.181 | 0.498 | 0.487 | 0.112 | 0.952 | 0.388 | 0.247 | 1 | 0.165 | 0.399 | 0.79 | 0.461 | 0.134 | 0.234
CN(CCO)CC[C@H](CSc1ccccc1)Nc1ccc(S(=O)(=O)NC(=O)c2ccc(N3CCC([C@@H](O)c4ccccc4-c4ccc(Cl)cc4)CC3)cc2)cc1S(=O)(=O)C(F)(F)F [AZD4320] + C=CCn1c(=O)c2cnc(Nc3ccc(N4CCN(C)CC4)cc3)nc2n1-c1cccc(C(C)(C)O)n1 [AZD1775] (first compound max 1 µM, partner max 1 µM) | 0.491 | 0.985 | 0.88 | 0.244 | 0.349 | 0.933 | 0.345 | 0.584 | 0.87 | 0.618 | 1 | 0.376 | 1 | 1 | 0.65 | 0.871 | 0.949 | 0.966 | 0.304 | 0.51
